Each block holds one compound with its values, some of them ahead of it.
Tests used:
Toll-like receptor 8 [1] = molecular target: T1, Toll-like receptor 8 (Homo sapiens, UniProt Q9NR97); experiment: Agonist activity at human TLR8 in HEK-Blue hTLR8 cells assessed as activation of NFkappaB by SEAP reporter gene based spectrophotometry assay; type: cell-based
T1 sequence (Q9NR97 whole entry): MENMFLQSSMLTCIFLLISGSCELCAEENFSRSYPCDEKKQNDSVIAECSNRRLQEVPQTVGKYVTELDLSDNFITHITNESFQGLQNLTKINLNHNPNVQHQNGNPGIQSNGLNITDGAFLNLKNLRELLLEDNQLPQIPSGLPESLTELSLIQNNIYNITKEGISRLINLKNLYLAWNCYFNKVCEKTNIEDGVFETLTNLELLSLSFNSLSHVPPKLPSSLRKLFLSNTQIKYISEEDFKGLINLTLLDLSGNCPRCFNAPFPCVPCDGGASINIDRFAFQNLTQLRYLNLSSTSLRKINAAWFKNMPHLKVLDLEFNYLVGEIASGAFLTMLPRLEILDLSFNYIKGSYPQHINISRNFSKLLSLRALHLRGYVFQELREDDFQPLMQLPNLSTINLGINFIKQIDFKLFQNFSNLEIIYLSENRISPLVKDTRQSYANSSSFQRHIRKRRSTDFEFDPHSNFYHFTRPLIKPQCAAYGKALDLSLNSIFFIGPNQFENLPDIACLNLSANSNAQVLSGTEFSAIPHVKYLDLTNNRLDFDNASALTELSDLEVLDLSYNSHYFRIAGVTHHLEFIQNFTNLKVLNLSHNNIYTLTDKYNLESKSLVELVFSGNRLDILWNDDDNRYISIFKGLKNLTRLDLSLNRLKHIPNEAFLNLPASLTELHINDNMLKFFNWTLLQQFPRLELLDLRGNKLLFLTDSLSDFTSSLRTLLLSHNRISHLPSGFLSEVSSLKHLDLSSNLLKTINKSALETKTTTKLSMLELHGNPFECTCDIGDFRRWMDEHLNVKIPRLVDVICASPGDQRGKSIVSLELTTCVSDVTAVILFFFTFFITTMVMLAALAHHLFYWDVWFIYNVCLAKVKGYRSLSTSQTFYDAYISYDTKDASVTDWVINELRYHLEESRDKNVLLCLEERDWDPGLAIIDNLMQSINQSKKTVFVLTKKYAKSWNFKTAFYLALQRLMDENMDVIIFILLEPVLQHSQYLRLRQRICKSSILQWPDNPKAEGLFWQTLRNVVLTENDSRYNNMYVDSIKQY

Toll-like receptor 7 [2] = molecular target: T2, Toll-like receptor 7 (Homo sapiens, UniProt Q9NYK1); experiment: Agonist activity at TLR7 (unknown origin)
T2 sequence (Q9NYK1 whole entry): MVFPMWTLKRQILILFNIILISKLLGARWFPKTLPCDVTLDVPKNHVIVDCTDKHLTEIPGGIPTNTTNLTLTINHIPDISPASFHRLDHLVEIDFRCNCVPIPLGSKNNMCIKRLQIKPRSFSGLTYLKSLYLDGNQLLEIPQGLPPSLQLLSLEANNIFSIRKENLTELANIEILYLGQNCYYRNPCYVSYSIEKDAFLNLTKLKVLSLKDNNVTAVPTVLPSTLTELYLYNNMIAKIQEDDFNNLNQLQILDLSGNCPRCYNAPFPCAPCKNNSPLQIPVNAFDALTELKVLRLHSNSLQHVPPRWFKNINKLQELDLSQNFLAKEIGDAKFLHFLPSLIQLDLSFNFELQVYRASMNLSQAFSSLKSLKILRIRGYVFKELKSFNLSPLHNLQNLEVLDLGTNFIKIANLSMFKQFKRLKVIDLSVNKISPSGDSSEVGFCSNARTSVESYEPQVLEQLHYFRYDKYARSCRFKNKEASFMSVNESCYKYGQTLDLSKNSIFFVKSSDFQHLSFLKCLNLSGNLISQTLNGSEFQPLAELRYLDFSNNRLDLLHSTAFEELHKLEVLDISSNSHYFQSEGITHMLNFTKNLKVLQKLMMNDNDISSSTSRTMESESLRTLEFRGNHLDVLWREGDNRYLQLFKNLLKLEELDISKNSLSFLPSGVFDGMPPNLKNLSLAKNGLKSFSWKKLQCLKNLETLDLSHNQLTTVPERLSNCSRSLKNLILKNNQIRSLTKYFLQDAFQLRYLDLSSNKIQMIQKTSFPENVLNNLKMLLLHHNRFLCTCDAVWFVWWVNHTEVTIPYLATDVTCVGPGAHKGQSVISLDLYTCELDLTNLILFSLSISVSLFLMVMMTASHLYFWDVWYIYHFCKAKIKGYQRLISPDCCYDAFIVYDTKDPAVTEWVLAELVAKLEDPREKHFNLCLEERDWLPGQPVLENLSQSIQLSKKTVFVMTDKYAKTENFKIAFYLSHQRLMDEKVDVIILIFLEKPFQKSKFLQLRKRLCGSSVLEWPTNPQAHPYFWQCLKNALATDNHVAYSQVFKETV

Toll-like receptor 7 [3] = molecular target: T2, Toll-like receptor 7; experiment: Agonist activity at recombinant human TLR7 transfected in HEK293 cells assessed as induction of SEAP production incubated overnight by SEAP reporter gene based assay; type: cell-based
Toll-like receptor 8 [4] = molecular target: T1, Toll-like receptor 8; experiment: Agonist activity at TLR8 (unknown origin)
Toll-like receptor 7 [5] = molecular target: T2, Toll-like receptor 7; experiment: Agonist activity at human TLR7 in HEK-Blue hTLR7 cells assessed as activation of NFkappaB by SEAP reporter gene based spectrophotometry assay; type: cell-based
Toll-like receptor 7 [6] = molecular target: T2, Toll-like receptor 7; experiment: Agonist activity at human TLR7 transfected in HEK293 cells assessed as induction of SEAP production incubated overnight by SEAP reporter gene based assay; type: cell-based
Toll-like receptor 8 [7] = molecular target: T1, Toll-like receptor 8; experiment: Agonist activity at human TLR8 transfected in HEK293 cells assessed as induction of SEAP production incubated overnight; type: cell-based

SMILES: CCCCNc1nc(N)nnc1OC
EC50 (Toll-like receptor 7 [2]): 17500 nM

SMILES: CCC[C@@H](CO)Nc1nc(N)nc(C)c1Cc1ccc(CNC2CNC2)cc1OC
EC50 (Toll-like receptor 7 [3]): 380 nM

SMILES: CCCCNc1nc(N)nnc1OC(C)C
EC50 (Toll-like receptor 7 [2]): 8270 nM

SMILES: CCCc1nc2c(NC=O)nc3ccccc3c2s1
EC50 (Toll-like receptor 8 [1]): 880 nM

SMILES: CCC[C@@H](CCO)Nc1nc(N)nc(C)c1Cc1ccc(CN2CCCC2)cc1OC
EC50 (Toll-like receptor 7 [3]): < 1.95 nM

SMILES: CCC[C@@H](CO)Nc1nc(N)nc(C)c1Cc1ccc(CN(C)C)cc1OC
EC50 (Toll-like receptor 7 [3]): 2.29 nM

SMILES: CCC[C@H](CCO)Nc1nc(N)nnc1OCc1nccc(OC)c1OC
EC50 (Toll-like receptor 7 [2]): 240 nM | EC50 (Toll-like receptor 8 [4]): 560 nM

SMILES: CCCCc1nc2c(NC(=O)CCC)nc3ccccc3c2s1
EC50 (Toll-like receptor 7 [5]; hek-blue htlr7): 490 nM | EC50 (Toll-like receptor 8 [1]; hek-blue htlr8): 420 nM

SMILES: Cc1nc2c(N)nc3ccccc3c2s1
EC50 (Toll-like receptor 7 [5]; hek-blue htlr7): 10200 nM

SMILES: CCCCc1nc2c(N)nc(NCC3CCCCC3)cc2n1Cc1ccccc1
EC50 (Toll-like receptor 7 [5]): 320 nM

SMILES: CCCc1nc2c(N)nc3ccc(-n4cc([Si](C)(C)C)nn4)cc3c2s1
EC50 (Toll-like receptor 8 [1]; hek-blue htlr8): 9840 nM

SMILES: CCCCc1nc2c(N)nc(NCc3ccc(OC)cc3)cc2n1Cc1ccccc1
EC50 (Toll-like receptor 7 [5]): 75 nM

SMILES: CCCc1nc2c(N)nc3ccc(N=[N+]=[N-])cc3c2s1
EC50 (Toll-like receptor 7 [5]; hek-blue htlr7): 10200 nM | EC50 (Toll-like receptor 8 [1]; hek-blue htlr8): 2060 nM

SMILES: CCCCCc1nc2c(N)nc3ccccc3c2s1
EC50 (Toll-like receptor 7 [5]; hek-blue htlr7): 4140 nM | EC50 (Toll-like receptor 8 [1]; hek-blue htlr8): 1940 nM

SMILES: CC[C@H](C)Cc1nc2c(N)nc3ccccc3c2s1
EC50 (Toll-like receptor 7 [5]; hek-blue htlr7): 4740 nM | EC50 (Toll-like receptor 8 [1]; hek-blue htlr8): 2510 nM

SMILES: CCC[C@@H](CCO)Nc1nc(N)nc(C)c1Cc1ccc(CNC2CNC2)cc1OC
EC50 (Toll-like receptor 8 [7]): > 10000 nM | EC50 (Toll-like receptor 7 [3]): 19.5 nM

Second part, the compound after the results:

EC50 (Toll-like receptor 8 [1]; hek-blue htlr8): 2770 nM
SMILES: CC[C@H](C)c1nc2c(N)nc3ccccc3c2s1

EC50 (Toll-like receptor 7 [2]): 2940 nM | EC50 (Toll-like receptor 8 [4]): 1930 nM
SMILES: CCCCNc1nc(N)nnc1OCc1ccccc1

EC50 (Toll-like receptor 7 [2]): 7800 nM
SMILES: CCCC[C@H](CCO)Nc1nc(N)nnc1OC

EC50 (Toll-like receptor 7 [2]): 750 nM
SMILES: CCCCNc1nc(N)nnc1OCc1ccccc1F

EC50 (Toll-like receptor 7 [5]; hek-blue htlr7): 3630 nM | EC50 (Toll-like receptor 8 [1]; hek-blue htlr8): 1610 nM
SMILES: Nc1nc2ccccc2c2sc(CCC(F)(F)F)nc12

EC50 (Toll-like receptor 7 [3]): 95.5 nM
SMILES: CCC[C@@H](CO)Nc1nc(N)nc(C)c1Cc1ccc(CNCCO)cc1OC

EC50 (Toll-like receptor 7 [2]): 1 nM
SMILES: CCCCOc1nc(N)c2[nH]c(C#N)c(Cc3ccc(CN4CCCC4)nc3)c2n1

EC50 (Toll-like receptor 7 [2]): > 25000 nM | EC50 (Toll-like receptor 8 [4]): 100 nM
SMILES: CCCCNc1nc(N)nnc1OCCCN(C)C

EC50 (Toll-like receptor 7 [6]): 54.6 nM
SMILES: CCOC(=O)COc1cccc(CN(CCCn2c(CCOC)nc3c(N)nc4ccccc4c32)C(=O)CN(CC)CC)c1

EC50 (Toll-like receptor 7 [5]; hek-blue htlr7): 2250 nM | EC50 (Toll-like receptor 8 [1]; hek-blue htlr8): 6290 nM
SMILES: Nc1nc2ccccc2c2sc(CCCC(F)(F)F)nc12

EC50 (Toll-like receptor 7 [5]): 250 nM
SMILES: CCCCc1nc2c(N)nc(NCc3cccnc3)cc2n1Cc1ccccc1

EC50 (Toll-like receptor 7 [2]): 170 nM
SMILES: CCCCNc1nc(N)nnc1OCc1ccccn1

EC50 (Toll-like receptor 8 [7]): > 10000 nM | EC50 (Toll-like receptor 7 [3]): 44.7 nM
SMILES: CCC[C@@H](CCO)Nc1nc(N)nc(C)c1Cc1ccc(CNCC(N)=O)cc1OC

EC50 (Toll-like receptor 7 [5]; hek-blue htlr7): 6960 nM | EC50 (Toll-like receptor 8 [1]; hek-blue htlr8): 1550 nM
SMILES: CC(C)Cc1nc2c(N)nc3ccccc3c2s1

EC50 (Toll-like receptor 8 [1]; hek-blue htlr8): 3880 nM
SMILES: CCCc1nc2c(N)nc3ccc(N)cc3c2s1

EC50 (Toll-like receptor 7 [5]; hek-blue htlr7): 3530 nM | EC50 (Toll-like receptor 8 [1]; hek-blue htlr8): 1200 nM
SMILES: CCCc1nc2c(NC(=O)CN=[N+]=[N-])nc3ccccc3c2s1
